From patent publication US8357655B2, “Wound healing peptides and methods of use thereof” (Tufts University, priority 2008, dated 2013)

Columns and labels:
Assay type in all cases: cell-based
[1] = test system: capillary endothelial cells; assay: in vitro capillary morphogenesis (angiogenesis) assay; settings: cells embedded in ECM-derived three-dimensional matrix, incubated twenty hours (FIG. 4)
Method: The WHPs provided herein are also useful in the promotion of capillary morphogenesis. […] Specifically, isolated capillary endothelial cells were embedded in an ECM-derived three-dimensional matrix that contained a WHP at a range of concentrations from the nanomolar (nM) to sub-millimolar (mM) (e.g., between 0.5 nM-0.2 mM) and incubated. […] In comparison, negative control cell populations (i.e., cells that were not exposed to a WHP but were exposed to serum containing media, which contains growth factors and other angiogenesis inducers) generally remained as individual cells during this timeframe at this population density.

endothelial cells = assay: endothelial cell proliferation assay; settings: peptide at 1 nM; control cultures in 5% BCS DMEM (FIG. 5)
Method: The WHPs provided herein induce endothelial cell proliferation. […] Endothelial cells were plated at subconfluent concentrations and allowed to attach, then new culture media was provided in the presence or absence of a WHP; control cultures were grown in 5% BCS DMEM.

[2] = test system: human epidermal-derived keratinocytes; assay: in vitro wound healing assay, keratinocyte post-injury motility; settings: compared with HbEGF, growth factor known to be migration-inducing in keratinocytes (FIG. 2)
Method: Referring to FIG. 2, an in vitro wound healing assay was performed to compare the wound healing properties of two WHPs, SEQ ID NO: 3 and SEQ ID NO: 9, with a known potentiator of keratinocyte migration, heparin-binding EGF-like growth factor (HbEGF). In these experiments, confluent densities of human epidermal-derived keratinocytes were plated in vitro in defined media lacking WHPs or positive control substances. At time zero, all cultures are wounded mechanically and imaging of wounds was accomplished automatically using computer-assisted light microscope imaging. Cell cultures were injured mechanically by removing defined zones of living cells were then washed and test agents or control substances delivered. Cells recovering from injury were than quantifiably monitored using computer-assisted imaging and light microscopy. Post-injury motility was assessed using the migratory response of untreated injured cultures as a baseline for quantitative comparative analysis. Multiple experiments with multiple replicates are shown, standard deviation with error of the mean.

[3] = test system: capillary endothelial cells; assay: in vitro wound healing assay, capillary endothelial cell migration; settings: one and two hours post-injury; WHP 0.5 nM to 0.2 mM in DMEM with 1% bovine calf serum; vs control cultures (FIG. 1)
Method: In this assay, capillary endothelial cells were plated on tissue culture plastic and allowed to form a confluent monolayer. The monolayer was mechanically disrupted and non-adherent cells were removed, at which point the WHP was provided at a concentration within the range of sub-nanomolar (0.5 nM) to sub-millimolar (0.2 mM) in tissue culture media (DMEM with 1% bovine calf serum. Control cultures were incubated with serum alone, positive control test substances, e.g. basic fibroblast growth factor (bFGF viz, FGF2) and vascular endothelial growth factor (VEGF) (for capillary-derived endothelial cells); or heparin-binding epidermal-like growth factor (Hb-EGF) (for human skin derived keratinocytes). Other control cultures were incubated with either no peptide or a random peptide without wound healing or proliferative properties. The extent of endothelial cell migration in the WHP and control cultures was observationally determined at various time points following injury (e.g., thirty minutes, one hour, two hours, or more than two hours).

[4] = in vitro injury model, dose dependence; settings: concentrations ranging from 1 to 1000 nM (FIG. 3)
Method: Referring to FIG. 3, the WHPs provided herein act in dose-dependent manner. A WHP, SEQ ID NO: 9, was provided in an in vitro injury model at concentrations ranging from 1 to 1000 nM.

Row | Substance | formation of capillary tube like structures / in vitro angiogenesis [1] | endothelial cell proliferation (endothelial cells) | keratinocyte post-injury motility [2] | endothelial cell migration into the wound site [3] | wound healing activity, dose dependence [4]
1 | bFGF: basic fibroblast growth factor, positive control growth factor | able to promote in vitro angiogenesis to a lesser extent than populations treated with a WHP | – | – | – | –
2 | DINECEIGAPAGEETEVTVEGLEPG [SEQ ID NO: 3] | – | increase in endothelial cell proliferation | equal or superior to the growth factor | – | –
3 | DINECELSANL [SEQ ID NO: 9] | – | increase in endothelial cell proliferation | equal or superior to the growth factor | substantially greater migration into the wound site | dose-dependent
